Measured values reported in PMC8204404 (Structure(London, England:1993), 2021).
Non-standard residues stand in square brackets, D forms with d. Residues, ends and D or L forms follow the SMILES beside them. No end group written: not given here. *: point of attachment. 5FAM = O=C1OC2(c3ccc(O)cc3Oc3cc(O)ccc32)c2ccc(C(=O)*)cc21; pT = C[C@@H](OP(=O)(O)O)[C@H](N)C(=O)O; pS = N[C@@H](COP(=O)(O)O)C(=O)O

B1: Flu-CLASPIN_pS945 peptide (peptide)
peptide: GGMEELLNLCSGKFTSQ
modifications: not fully specified

Key:
[1] = target: T1, CHK1-KD (CHK1 construct consisting of only the kinase domain, CHK1(1-290)) (Homo sapiens, UniProt O14757); assay: Fluorescence polarization binding of CLASPIN peptides to CHK1-KD; conditions: FP, phosphorylated peptide
T1 sequence (O14757 1-290): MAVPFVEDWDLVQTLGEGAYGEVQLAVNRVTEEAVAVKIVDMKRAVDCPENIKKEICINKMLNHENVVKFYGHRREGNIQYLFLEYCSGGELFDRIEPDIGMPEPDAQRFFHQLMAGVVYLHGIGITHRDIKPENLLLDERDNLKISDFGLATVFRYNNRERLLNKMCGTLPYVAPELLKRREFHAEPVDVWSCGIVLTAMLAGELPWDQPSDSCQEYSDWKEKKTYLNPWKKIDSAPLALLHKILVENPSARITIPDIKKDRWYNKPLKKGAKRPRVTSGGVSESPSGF

[2] = target: T2, CHK1-KD (CHK1 construct consisting of only the kinase domain) (Homo sapiens, UniProt O14757); assay type: binding
T2 sequence (O14757 1-290): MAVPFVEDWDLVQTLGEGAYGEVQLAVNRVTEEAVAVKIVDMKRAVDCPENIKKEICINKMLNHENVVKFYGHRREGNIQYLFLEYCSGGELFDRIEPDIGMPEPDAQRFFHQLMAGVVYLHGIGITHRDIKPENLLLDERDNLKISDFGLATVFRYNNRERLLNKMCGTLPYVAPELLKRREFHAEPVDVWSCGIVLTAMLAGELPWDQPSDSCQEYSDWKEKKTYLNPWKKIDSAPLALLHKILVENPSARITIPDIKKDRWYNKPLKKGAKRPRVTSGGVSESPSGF

[3] = target: B1; assay: fluorescence polarisation
[4] = target: T3, CHK1 kinase domain (CHK1-KD), STREP-(3C)-CHK1(1–290)-HIS (human, UniProt O14757 1-290); assay: fluorescence polarisation
T3 sequence: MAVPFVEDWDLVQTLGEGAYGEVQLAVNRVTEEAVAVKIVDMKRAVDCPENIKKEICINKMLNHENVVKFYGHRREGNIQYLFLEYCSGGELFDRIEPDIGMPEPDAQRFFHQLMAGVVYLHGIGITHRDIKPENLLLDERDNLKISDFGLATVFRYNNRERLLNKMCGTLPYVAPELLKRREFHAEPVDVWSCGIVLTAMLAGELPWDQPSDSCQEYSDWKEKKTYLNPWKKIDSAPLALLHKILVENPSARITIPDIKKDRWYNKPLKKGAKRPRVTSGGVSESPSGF

Row | Molecule | affinity for CHK1-KD (in words) [1] | binding result [4] | other results
1 | CSCC[C@H](NC(=O)CNC(=O)CNC(=O)c1ccc2c(c1)C(=O)OC21c2ccc(O)cc2Oc2cc(O)ccc21)C(=O)N[C@@H](CCC(=O)O)C(=O)N[C@@H](CCC(=O)O)C(=O)N[C@@H](CC(C)C)C(=O)N[C@@H](CC(C)C)C(=O)N[C@@H](CC(N)=O)C(=O)N[C@@H](CC(C)C)C(=O)N[C@@H](CS)C(=O)N[C@@H](COP(=O)(O)O)C(=O)NCC(=O)N[C@@H](CCCCN)C(=O)N[C@@H](Cc1ccccc1)C(=O)N[C@H](C(=O)N[C@@H](CO)C(=O)N[C@@H](CCC(N)=O)C(=O)O)[C@@H](C)O [pS945] (5FAM-GGMEELLNLC[pS]GKFTSQ-OH) | high nanomolar range | – | –
2 | CSCC[C@H](NC(=O)CNC(=O)CNC(=O)c1ccc2c(c1)C(=O)OC21c2ccc(O)cc2Oc2cc(O)ccc21)C(=O)N[C@@H](CCC(=O)O)C(=O)N[C@@H](CCC(=O)O)C(=O)N[C@@H](C)C(=O)N[C@@H](CC(C)C)C(=O)N[C@@H](C)C(=O)N[C@@H](CC(C)C)C(=O)N[C@@H](CS)C(=O)N[C@@H](COP(=O)(O)O)C(=O)NCC(=O)N[C@@H](CO)C(=O)N[C@@H](Cc1ccccc1)C(=O)N1CCC[C@H]1C(=O)N[C@H](C(=O)N[C@@H](CC(=O)O)C(=O)O)[C@@H](C)O [pS982] (5FAM-GGMEEALALC[pS]GSFPTD-OH) | high nanomolar range | – | –
3 | CSCC[C@H](NC(=O)CNC(=O)CNC(=O)c1ccc2c(c1)C(=O)OC21c2ccc(O)cc2Oc2cc(O)ccc21)C(=O)N[C@@H](CC(=O)O)C(=O)N[C@@H](CCC(=O)O)C(=O)N[C@@H](CC(C)C)C(=O)N[C@@H](CC(C)C)C(=O)N[C@@H](CC(=O)O)C(=O)N[C@@H](CC(C)C)C(=O)N[C@@H](CS)C(=O)N[C@H](C(=O)NCC(=O)N[C@@H](CCCCN)C(=O)N[C@@H](Cc1ccccc1)C(=O)N[C@H](C(=O)N[C@@H](CO)C(=O)N[C@@H](CCC(N)=O)C(=O)O)[C@@H](C)O)[C@@H](C)OP(=O)(O)O [pT916] (5FAM-GGMDELLDLC[pT]GKFTSQ-OH) | high nanomolar range | – | –
4 | MEELLNLC[pS]GKFTSQ [CLASPIN pS945 peptide] | – | – | effect on affinity of CHK1-KD for CDC25C substrate peptide [2]: no significant difference
5 | full-length CHK1, STREP-(3C)-CHK1-HIS, treated with λ-phosphatase (enzyme) MAVPFVEDWDLVQTLGEGAYGEVQLAVNRVTEEAVAVKIVDMKRAVDCPENIKKEICINKMLNHENVVKFYGHRREGNIQYLFLEYCSGGELFDRIEPDIGMPEPDAQRFFHQLMAGVVYLHGIGITHRDIKPENLLLDERDNLKISDFGLATVFRYNNRERLLNKMCGTLPYVAPELLKRREFHAEPVDVWSCGIVLTAMLAGELPWDQPSDSCQEYSDWKEKKTYLNPWKKIDSAPLALLHKILVENPSARITIPDIKKDRWYNKPLKKGAKRPRVTSGGVSESPSGFSKHIQSNLDFSPVNSASSEENVKYSSSQPEPRTGLSLWDTSPSYIDKLVQGISFSQPTCPDHMLLNSQLLGTPGSSQNPWQRLVKRMTRFFTKLDADKSYQCLKETCEKLGYQWKKSCMNQVTISTTDRRNNKLIFKVNLLEMDDKILVDFRLSKGDGLEFKRHFLKIKGKLIDIVSSQKIWLPAT | – | – | fold lower affinity than CHK1-KD [3]: 2 fold
6 | B1 | – | binds | –
7 | GGMDELLDLCTGKFTSQ (not fully specified; fluorescein on the N-terminus; phosphothreonine at 916 (pT916)) [Flu-CLASPIN_pT916 peptide] | – | binds | –
8 | GGMEEALALCSGSFPTD (not fully specified; fluorescein on the N-terminus; phosphoserine at 982 (pS982)) [Flu-CLASPIN_pS982 peptide] | – | binds | –
